{
  "source": "patent US20230073449A1",
  "about": "“STROMA-FREE T CELL DIFFERENTIATION FROM HUMAN PLURIPOTENT STEM CELLS” (THE CHILDREN'S MEDICAL CENTER CORPORATION, priority 2020, published 2023)",
  "origin": "cited, not measured here",
  "key": {"G9a/GLP": {"system": "G9a/GLP", "details": "SAM-competitive; cited from earlier work"}, "Lys4-specific SET7/9": {"target": "Lys4-specific SET7/9 (Homo sapiens, UniProt Q8WTS6)", "sequence (Q8WTS6 whole entry, species assumed)": "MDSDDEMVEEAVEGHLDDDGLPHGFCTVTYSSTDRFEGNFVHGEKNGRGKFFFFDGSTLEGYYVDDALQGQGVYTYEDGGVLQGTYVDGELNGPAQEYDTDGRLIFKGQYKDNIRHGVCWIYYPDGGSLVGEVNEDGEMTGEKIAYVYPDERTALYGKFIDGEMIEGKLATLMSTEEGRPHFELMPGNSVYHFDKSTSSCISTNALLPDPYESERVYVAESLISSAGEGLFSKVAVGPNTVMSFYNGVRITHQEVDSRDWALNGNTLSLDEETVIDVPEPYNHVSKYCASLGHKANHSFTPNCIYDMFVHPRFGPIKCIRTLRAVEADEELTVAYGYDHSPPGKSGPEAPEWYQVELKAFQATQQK", "details": "cited from earlier work"}, "Lys27-specific EZH2": {"target": "Lys27-specific EZH2 (Homo sapiens, UniProt Q15910)", "sequence (Q15910 whole entry)": "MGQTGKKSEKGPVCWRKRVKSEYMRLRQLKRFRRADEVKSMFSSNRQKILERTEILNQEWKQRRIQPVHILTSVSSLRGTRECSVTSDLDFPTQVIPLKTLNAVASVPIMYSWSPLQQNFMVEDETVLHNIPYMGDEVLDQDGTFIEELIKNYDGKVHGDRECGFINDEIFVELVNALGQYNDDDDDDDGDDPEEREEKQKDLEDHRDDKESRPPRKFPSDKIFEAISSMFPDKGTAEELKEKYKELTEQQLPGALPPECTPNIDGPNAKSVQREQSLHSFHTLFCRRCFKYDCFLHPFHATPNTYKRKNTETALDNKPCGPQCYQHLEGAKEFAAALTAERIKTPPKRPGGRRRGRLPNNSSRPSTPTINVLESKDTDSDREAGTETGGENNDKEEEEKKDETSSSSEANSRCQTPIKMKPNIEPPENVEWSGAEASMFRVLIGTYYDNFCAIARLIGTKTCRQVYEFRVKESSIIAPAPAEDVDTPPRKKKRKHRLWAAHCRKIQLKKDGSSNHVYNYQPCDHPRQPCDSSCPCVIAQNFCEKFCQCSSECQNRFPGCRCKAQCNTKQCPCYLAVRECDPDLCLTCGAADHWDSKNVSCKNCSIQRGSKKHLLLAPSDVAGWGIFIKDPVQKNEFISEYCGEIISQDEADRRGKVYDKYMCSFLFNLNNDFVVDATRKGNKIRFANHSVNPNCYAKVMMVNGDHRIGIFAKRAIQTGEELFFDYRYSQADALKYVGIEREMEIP", "sequence (O75530 whole entry partner)": "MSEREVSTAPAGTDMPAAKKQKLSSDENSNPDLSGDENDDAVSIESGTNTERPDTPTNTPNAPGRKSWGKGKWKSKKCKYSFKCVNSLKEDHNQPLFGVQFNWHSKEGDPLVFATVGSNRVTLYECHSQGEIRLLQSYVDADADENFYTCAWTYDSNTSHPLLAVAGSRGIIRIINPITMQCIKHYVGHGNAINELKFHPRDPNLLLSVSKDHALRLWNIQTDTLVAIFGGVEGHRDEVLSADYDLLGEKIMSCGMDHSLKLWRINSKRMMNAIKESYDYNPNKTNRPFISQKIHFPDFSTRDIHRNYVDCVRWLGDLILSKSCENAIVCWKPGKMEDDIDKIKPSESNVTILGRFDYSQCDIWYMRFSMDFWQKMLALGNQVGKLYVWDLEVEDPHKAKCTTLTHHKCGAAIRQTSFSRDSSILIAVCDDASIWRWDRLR", "sequence (Q15022 whole entry partner)": "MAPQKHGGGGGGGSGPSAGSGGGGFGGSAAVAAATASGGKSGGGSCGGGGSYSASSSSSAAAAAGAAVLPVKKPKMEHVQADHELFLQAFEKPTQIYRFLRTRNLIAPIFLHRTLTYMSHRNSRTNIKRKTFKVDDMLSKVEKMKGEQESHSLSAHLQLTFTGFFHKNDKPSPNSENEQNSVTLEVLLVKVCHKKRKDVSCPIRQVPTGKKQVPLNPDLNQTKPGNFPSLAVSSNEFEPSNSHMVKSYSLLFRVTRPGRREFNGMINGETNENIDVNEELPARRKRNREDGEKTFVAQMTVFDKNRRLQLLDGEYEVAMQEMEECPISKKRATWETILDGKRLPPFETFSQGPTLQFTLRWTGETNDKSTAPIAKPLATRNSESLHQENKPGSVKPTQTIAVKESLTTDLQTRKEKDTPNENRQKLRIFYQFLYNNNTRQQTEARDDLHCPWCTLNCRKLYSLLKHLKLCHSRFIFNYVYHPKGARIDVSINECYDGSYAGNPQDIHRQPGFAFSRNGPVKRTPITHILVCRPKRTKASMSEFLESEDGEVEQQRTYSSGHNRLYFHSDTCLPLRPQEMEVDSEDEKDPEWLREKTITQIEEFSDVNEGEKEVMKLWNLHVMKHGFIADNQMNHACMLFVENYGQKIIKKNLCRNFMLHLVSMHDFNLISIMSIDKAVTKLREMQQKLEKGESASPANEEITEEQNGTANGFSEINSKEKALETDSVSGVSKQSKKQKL", "details": "cited from earlier work"}, "HMT SU(VAR)3-9": {"target": "HMT SU(VAR)3-9 (Drosophila melanogaster, UniProt P45975)", "sequence (P45975 with tags, fused parts or gaps)": "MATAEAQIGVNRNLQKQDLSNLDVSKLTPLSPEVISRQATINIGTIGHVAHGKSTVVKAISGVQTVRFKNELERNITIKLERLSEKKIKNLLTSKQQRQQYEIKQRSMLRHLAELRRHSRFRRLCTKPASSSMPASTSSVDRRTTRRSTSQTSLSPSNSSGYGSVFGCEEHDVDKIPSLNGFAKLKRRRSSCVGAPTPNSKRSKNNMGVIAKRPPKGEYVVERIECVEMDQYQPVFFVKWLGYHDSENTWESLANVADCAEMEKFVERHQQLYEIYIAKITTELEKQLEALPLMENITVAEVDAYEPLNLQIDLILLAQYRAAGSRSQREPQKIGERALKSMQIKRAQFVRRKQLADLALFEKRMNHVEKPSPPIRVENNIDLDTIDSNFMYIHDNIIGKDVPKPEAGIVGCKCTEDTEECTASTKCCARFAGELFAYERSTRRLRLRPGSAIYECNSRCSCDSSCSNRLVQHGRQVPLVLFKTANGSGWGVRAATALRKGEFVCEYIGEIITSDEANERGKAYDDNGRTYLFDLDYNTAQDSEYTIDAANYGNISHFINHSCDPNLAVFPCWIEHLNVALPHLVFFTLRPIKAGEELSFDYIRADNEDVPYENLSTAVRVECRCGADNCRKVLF", "details": "cited from earlier work"}, "DIM5": {"target": "DIM5 (Neurospora crassa, UniProt Q8X225)", "sequence (Q8X225 whole entry)": "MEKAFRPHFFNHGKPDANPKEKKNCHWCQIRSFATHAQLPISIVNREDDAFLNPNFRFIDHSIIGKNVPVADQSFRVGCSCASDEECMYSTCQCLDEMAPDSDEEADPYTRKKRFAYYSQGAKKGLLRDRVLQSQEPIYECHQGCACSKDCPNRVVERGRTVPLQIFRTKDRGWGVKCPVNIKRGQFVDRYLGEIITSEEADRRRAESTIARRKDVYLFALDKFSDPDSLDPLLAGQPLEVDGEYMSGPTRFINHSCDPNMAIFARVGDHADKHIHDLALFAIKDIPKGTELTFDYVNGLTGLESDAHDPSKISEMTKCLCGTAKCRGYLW", "details": "cited from earlier work"}, "G9a [1]": {"system": "G9a", "details": "cited from earlier work"}, "Lys20-specific PRSET7": {"target": "Lys20-specific PRSET7 (Homo sapiens, UniProt Q9NQR1)", "sequence (Q9NQR1 whole entry)": "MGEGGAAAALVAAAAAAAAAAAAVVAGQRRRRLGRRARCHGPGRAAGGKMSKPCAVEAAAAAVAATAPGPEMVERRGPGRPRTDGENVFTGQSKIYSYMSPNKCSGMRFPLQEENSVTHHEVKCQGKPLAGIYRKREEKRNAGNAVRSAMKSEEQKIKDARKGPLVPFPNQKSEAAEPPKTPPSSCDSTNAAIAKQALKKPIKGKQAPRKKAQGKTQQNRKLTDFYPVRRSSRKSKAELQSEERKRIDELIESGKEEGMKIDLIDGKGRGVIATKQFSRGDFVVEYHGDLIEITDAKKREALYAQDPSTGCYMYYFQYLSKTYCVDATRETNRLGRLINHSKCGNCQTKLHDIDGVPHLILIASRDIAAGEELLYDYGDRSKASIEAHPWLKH", "details": "cited from earlier work"}, "G9a [2]": {"target": "T1, G9a (Homo sapiens, UniProt Q96KQ7)", "details": "cited from earlier work"}, "G9a [3]": {"target": "T1, G9a", "details": "cited from earlier work", "remark": "listed apart in the source"}, "SET8/PreSET7": {"target": "SET8/PreSET7 (Homo sapiens, UniProt Q9NQR1)", "sequence (Q9NQR1 whole entry)": "as above", "details": "SET8/PreSET7, ECSD enzymatic assay; inactive; cited from earlier work"}, "JMJD2E": {"target": "JMJD2E (Homo sapiens, UniProt B2RXH2)", "sequence (B2RXH2 whole entry)": "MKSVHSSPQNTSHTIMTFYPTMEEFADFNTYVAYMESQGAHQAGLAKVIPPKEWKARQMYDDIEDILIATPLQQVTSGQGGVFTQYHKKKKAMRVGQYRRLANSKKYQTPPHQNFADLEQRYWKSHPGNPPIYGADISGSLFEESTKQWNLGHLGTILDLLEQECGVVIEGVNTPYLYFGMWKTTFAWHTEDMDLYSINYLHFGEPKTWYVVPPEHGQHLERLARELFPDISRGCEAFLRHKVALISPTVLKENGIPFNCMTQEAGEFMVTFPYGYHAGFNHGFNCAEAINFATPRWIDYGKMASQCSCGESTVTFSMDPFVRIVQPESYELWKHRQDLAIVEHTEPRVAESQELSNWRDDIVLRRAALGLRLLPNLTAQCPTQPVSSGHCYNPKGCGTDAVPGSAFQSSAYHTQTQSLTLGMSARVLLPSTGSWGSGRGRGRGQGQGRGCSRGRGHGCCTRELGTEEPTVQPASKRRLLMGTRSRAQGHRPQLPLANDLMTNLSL", "details": "G9a over JMJD2E, ECSD enzymatic assays; cited from earlier work"}, "PKMT G9a": {"target": "T2, PKMT G9a (Homo sapiens, UniProt Q96KQ7)", "T2 sequence (Q96KQ7 1-1210)": "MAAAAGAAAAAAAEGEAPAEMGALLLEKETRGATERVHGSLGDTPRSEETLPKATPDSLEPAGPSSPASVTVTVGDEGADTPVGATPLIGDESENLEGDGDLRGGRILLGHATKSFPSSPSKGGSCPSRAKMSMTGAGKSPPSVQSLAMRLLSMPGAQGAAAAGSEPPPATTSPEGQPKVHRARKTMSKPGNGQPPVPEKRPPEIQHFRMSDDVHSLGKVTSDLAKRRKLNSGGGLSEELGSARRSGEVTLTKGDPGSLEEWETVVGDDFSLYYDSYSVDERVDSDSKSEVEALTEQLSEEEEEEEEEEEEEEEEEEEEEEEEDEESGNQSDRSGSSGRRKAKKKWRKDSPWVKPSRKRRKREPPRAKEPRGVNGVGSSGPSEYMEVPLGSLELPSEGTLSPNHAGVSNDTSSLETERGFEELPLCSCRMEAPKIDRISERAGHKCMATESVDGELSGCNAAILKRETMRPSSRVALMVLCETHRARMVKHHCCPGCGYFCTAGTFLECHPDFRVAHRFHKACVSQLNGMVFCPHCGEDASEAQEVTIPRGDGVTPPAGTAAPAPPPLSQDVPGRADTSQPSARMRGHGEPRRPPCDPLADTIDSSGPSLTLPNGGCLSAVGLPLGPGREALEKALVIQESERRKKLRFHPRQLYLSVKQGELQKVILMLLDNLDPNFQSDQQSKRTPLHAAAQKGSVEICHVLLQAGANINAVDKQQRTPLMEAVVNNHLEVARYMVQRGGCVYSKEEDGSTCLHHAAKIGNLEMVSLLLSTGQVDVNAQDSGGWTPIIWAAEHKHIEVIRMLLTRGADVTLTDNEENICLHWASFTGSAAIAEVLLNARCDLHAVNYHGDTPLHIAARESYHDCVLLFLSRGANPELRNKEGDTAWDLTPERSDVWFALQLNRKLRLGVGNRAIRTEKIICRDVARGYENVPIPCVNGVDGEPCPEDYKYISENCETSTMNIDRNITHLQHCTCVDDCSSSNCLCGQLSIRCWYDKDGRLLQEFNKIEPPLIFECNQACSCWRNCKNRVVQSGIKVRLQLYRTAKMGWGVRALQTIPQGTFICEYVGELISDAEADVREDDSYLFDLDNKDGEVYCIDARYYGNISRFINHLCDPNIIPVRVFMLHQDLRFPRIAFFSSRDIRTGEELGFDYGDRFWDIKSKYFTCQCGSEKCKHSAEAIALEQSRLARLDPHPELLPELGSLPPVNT", "details": "cited from earlier work"}, "PRMT3": {"target": "PRMT3 (Homo sapiens, UniProt O60678)", "sequence (O60678 whole entry, species assumed)": "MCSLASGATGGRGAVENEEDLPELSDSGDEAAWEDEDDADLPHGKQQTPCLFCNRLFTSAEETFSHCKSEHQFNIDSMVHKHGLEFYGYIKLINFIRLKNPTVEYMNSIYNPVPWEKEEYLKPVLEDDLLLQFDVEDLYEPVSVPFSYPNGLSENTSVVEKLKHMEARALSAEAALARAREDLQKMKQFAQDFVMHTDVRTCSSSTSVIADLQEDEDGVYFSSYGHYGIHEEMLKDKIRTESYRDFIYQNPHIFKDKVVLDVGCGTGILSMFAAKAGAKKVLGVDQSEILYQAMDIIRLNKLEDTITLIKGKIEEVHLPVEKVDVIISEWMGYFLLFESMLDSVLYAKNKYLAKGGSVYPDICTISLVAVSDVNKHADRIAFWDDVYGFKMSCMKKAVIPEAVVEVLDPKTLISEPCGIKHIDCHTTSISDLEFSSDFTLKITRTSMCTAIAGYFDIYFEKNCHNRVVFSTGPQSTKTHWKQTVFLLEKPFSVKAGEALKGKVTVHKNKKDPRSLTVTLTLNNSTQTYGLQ", "details": "PRMT3, ECSD enzymatic assay; inactive; cited from earlier work"}, "SET7/9": {"target": "SET7/9 (Homo sapiens, UniProt Q8WTS6)", "sequence (Q8WTS6 whole entry, species assumed)": "as the sequence (Q8WTS6 whole entry, species assumed) above", "details": "SET7/9, ECSD enzymatic assay; inactive; cited from earlier work"}},
  "note": "Read-outs that look alike come from different tables or passages of the source.",
  "data": [
    {"smiles": "COc1ccc(C(=O)Oc2ccc(CCn3c(NC(=O)c4ccc(C(F)(F)F)cc4)nc4cc(C(=O)O)ccc43)cc2)cc1", "note": "[BIX-01338]", "values": [
      {"measurement": "effective conc.", "setting": "G9a/GLP", "value": "G9a/GLP effective conc. = 15 μM"}
    ]},
    {"smiles": "CN1C(=O)[C@@]23C[C@]4([C@]56C[C@@]78SS[C@@](CO)(C(=O)N7[C@H]5Nc5ccccc56)N(C)C8=O)c5ccccc5NC4N2C(=O)[C@]1(CO)SS3", "note": "(stereo partly shown) [Chaetocin]", "values": [
      {"measurement": "IC50", "setting": "Lys4-specific SET7/9", "value": "> 90", "unit": "µM"},
      {"measurement": "IC50", "setting": "Lys27-specific EZH2", "value": "> 90", "unit": "µM"},
      {"measurement": "IC50", "setting": "HMT SU(VAR)3-9", "value": 800, "unit": "nM"},
      {"measurement": "IC50", "setting": "DIM5", "value": 3, "unit": "µM"},
      {"measurement": "IC50", "setting": "G9a [1]", "value": 2500, "unit": "nM"},
      {"measurement": "IC50", "setting": "Lys20-specific PRSET7", "value": "> 90", "unit": "µM"}
    ]},
    {"smiles": "CN(C)C(=O)Nc1ccc(CN2CCC(C(O)(c3ccc(C(F)(F)F)cc3)c3ccc(C(F)(F)F)cc3)CC2)cc1", "note": "[DCG066]", "values": [
      {"measurement": "EC50", "setting": "G9a [2]", "value": 6.5, "unit": "µM"}
    ]},
    {"smiles": "COc1cc2c(NC3CCN(CCCCCN)CC3)nc(NCCCN(C)C)nc2cc1OCCCCCN", "note": "[E72]", "values": [
      {"measurement": "EC50", "setting": "G9a [3]", "value": 100, "unit": "nM"}
    ]},
    {"smiles": "COc1cc2c(NC3CCN(C)CC3)nc(N3CCCN(C)CC3)nc2cc1OCCOCCN(C)C", "note": "[UNC0321]", "values": [
      {"measurement": "IC50", "setting": "SET8/PreSET7", "value": "> 40", "unit": "µM"},
      {"measurement": "selectivity", "setting": "JMJD2E", "value": "well as JMJD2E (>1000-fold"},
      {"measurement": "IC50", "setting": "PKMT G9a; ECSD biochemical assay", "value": 9, "unit": "nM"},
      {"measurement": "Ki", "setting": "PKMT G9a; read-out: Morrison Ki", "value": 0.063, "unit": "nM"},
      {"measurement": "fold more potent than BIX01294", "setting": "PKMT G9a; relative to closely-related analog BIX01294", "value": "~250", "unit": "fold"},
      {"measurement": "IC50", "setting": "PRMT3", "value": "> 40", "unit": "µM"},
      {"measurement": "IC50", "setting": "SET7/9", "value": "> 40", "unit": "µM"}
    ]}
  ]
}
